Holding throughout (experiment): microbe, parasite or virus in culture
Common to all, as to details: Mycobacterium tuberculosis, read-out: MIC95 (95% inhibition)

The test system of assay [1] is M. tuberculosis isolate UCSD14768J.
For assay [2], the system named is M. tuberculosis isolate VA1215.
Assay [3] has as its system M. tuberculosis isolate VA1345.

≈ marks a conversion by molar mass, not a printed value.

For the molecule `CN(CCCNC(=O)c1ccc2c(c1)N(Cc1cccc(Cl)c1)C(=O)c1ccccc1[S+]2[O-])C1CCCCC1` (stereo not shown) [Compound 2, N-[3-(cyclohexylmethylamino)propyl]-10-[(3-chlorophenyl)methyl]-10,11-dihydro-11-oxo-dibenzo-[b,f][1,4]-thiazepine-8-carboxamide-5-oxide], the MIC in assay [1], in assay [2] and in assay [3] was 110 µM (≈ 62.1 µg/mL) each time.

As to `CCC1CCCCN1CCCNC(=O)c1ccc2c(c1)N(Cc1cccc(Cl)c1)C(=O)c1ccccc1[S+]2[O-]` (stereo not shown) [Compound 12], the MIC in assay [2] was determined as 110 µM (≈ 62.1 µg/mL).

For the molecule `O=C(NCCCN1CCCC1)c1ccc2c(c1)N(Cc1cccc(Cl)c1)C(=O)c1ccccc1[S+]2[O-]` (stereo not shown) [Compound 17], the MIC in assay [1], in assay [2] and in assay [3] was 220 µM (≈ 115 µg/mL) throughout.

As for `O=C(NCCCN1CCCC1)c1ccc2c(c1)N(Cc1cccc(Cl)c1)C(=O)c1ccccc1S2` [Compound 18], the MIC in assay [1], in assay [2] and in assay [3] was 110 µM (≈ 55.7 µg/mL) each time.

With `O=C(NCCN1CCCCCC1)c1ccc2c(c1)N(Cc1cccc(Cl)c1)C(=O)c1ccccc1[S+]2[O-]` (stereo not shown) [Compound 20], the MIC in assay [1], in assay [2] and in assay [3] was 110 µM (≈ 59 µg/mL) each time.

(Values after article PMC3123436 (Bioorganic & medicinal chemistry, 2011).)
